Here are results for 29 compounds from patent publication US10214507B2, “Carbazole-containing amides, carbamates, and ureas as cryptochrome modulators” (Reset Therapeutics, Inc., priority 2014, dated 2019).

The subject of the assay is stable U20S reporter cells harboring Per2-dLuc. Kind of assay: Per2 assay for evaluating the potency of test compounds (circadian luciferase reporter). Particulars: amplitude of Per2-dLuc luminescence vs log concentration. Type of assay: cell-based. As to the method: Compounds were screened by using a high-throughput circadian assay system as previously described in Zhang, E. E. et al. Cell, 2009, 139, 199-210. In brief, stable U20S reporter cells harboring Per2-dLuc were plated at a density of 30,000 cells/well in Corning 96-well, solid white, flat bottom, TC-treated microplates (Corning®), and incubated for 48 hours at 37° C. in the presence of 5% CO2 in a medium of Dulbecco's Modified Eagle Medium (DMEM) supplemented with 10% fetal bovine serum (FBS) and penicillin (100 units/mL)-streptomycin (100 μg/mL). […] DMSO stocks are then serially diluted in DMSO, typically diluting 3-fold for each dilution step. Following the 48 h period, cell culture medium is removed from plated cells and cells are synchronized with 200 μL/well of complete cell culture medium (described above), supplemented with 5 μM forskolin (Tocris®) and 1 mM beetle luciferin (Promega®). Immediately following synchronization, 1 μL of compound dilution is added to each well. Plates are sealed, shaken briefly, and gene expression was monitored by measuring luminescence (Tecan® Infinite M200 or Tecan® Infinite M200 Pro) continuously for a minimum of 3 days at 35° C. Raw luminescence data (counts) are first analyzed using Multicycle™ software (Actimetrics, Inc.) to determine the amplitude (amp), period, and phase (phz) for each compound concentration. The period length for control wells (i.e. no compound, DMSO only) should be 26-30 h. Amp data are then plotted against the logarithm compound concentration (M) and analyzed by nonlinear regression analysis to determine the EC50.
Background: In a reporter assay the amount or activity of a reporter protein is the signal.
The EC50 is the concentration at which the effect is half-maximal. A high value points to lower potency in that assay. In turn, `O=C1N(CC(O)Cn2c3ccc(F)cc3c3cc(F)ccc32)CCCN1C1CCC1` (centres unmarked) [Compound 78, 1-cyclobutyl-3-(3-(3,6-difluoro-9H-carbazol-9-yl)-2-hydroxypropyl)tetrahydropyrimidin-2(1H)-one] gave an EC50 of 440 nM.

As for `C[C@H]1CCC(=O)N1C[C@H](O)Cn1c2ccc(F)cc2c2cc(F)ccc21` [Compound 110, (S)-1-((R)-3-(3,6-difluoro-9H-carbazol-9-yl)-2-hydroxypropyl)-5-methylpyrrolidin-2-one], the midpoint of the response, the EC50, lay at 830 nM.

`CC1CCN(CC(O)Cn2c3ccc(F)cc3c3cc(F)ccc32)C1=O` (centres unmarked) [Compound 29, 1-(3-(3,6-difluoro-9H-carbazol-9-yl)-2-hydroxypropyl)-3-methylpyrrolidin-2-one] yielded an EC50 of 422 nM.

In the case of `O=C1[C@H]2CC[C@H](C2)N1C[C@@H](O)Cn1c2ccccc2c2ccccc21` [Compound 108, (1R,4S)-2-((S)-3-(9H-carbazol-9-yl)-2-hydroxypropyl)-2-azabicyclo[2.2.1]heptan-3-one], the EC50 is 750 nM. This EC50 lies about 1.8-fold higher than the previous one.

Consider `O=C1N(CC(O)Cn2c3ccc(F)cc3c3cc(F)ccc32)CCN1C1CCCC1` (centres unmarked) [Compound 91, 1-cyclopentyl-3-(3-(3,6-difluoro-9H-carbazol-9-yl)-2-hydroxypropyl)imidazolidin-2-one], for which the EC50 worked out at 621 nM.

`C[C@@](O)(CN1CC[C@@H](F)C1=O)Cn1c2ccccc2c2ccccc21` [Compound 123, (R)-1-((S)-3-(9H-carbazol-9-yl)-2-hydroxy-2-methylpropyl)-3-fluoropyrrolidin-2-one] gave an EC50 of 311 nM.

`O=C1C(C2CCC2)CCN1CC(O)Cn1c2ccc(F)cc2c2cc(F)ccc21` (centres unmarked) [Compound 50, 3-cyclobutyl-1-(3-(3,6-difluoro-9H-carbazol-9-yl)-2-hydroxypropyl)pyrrolidin-2-one] displayed an EC50 of 204 nM.

`CC(O)(CN1CCCCC1=O)Cn1c2ccc(F)cc2c2cc(F)ccc21` (centres unmarked) [Compound 5, 1-(3-(3,6-difluoro-9H-carbazol-9-yl)-2-hydroxy-2-methylpropyl)piperidin-2-one] yielded an EC50 of 536 nM.

In turn, `CC(O)(CN1CCCCC1=O)Cn1c2ccccc2c2ccccc21` (centres unmarked) [Compound 66, 1-(3-(9H-carbazol-9-yl)-2-hydroxy-2-methylpropyl)piperidin-2-one] came in with an EC50 of 523 nM.

With `C[C@@H]1CN(C[C@H](O)Cn2c3ccc(F)cc3c3cc(F)ccc32)C(=O)N1` [Compound 136, (R)-1-((R)-3-(3,6-difluoro-9H-carbazol-9-yl)-2-hydroxypropyl)-4-methylimidazolidin-2-one], the EC50 amounted to 826 nM.

`CCC1CCC(=O)N1CC(C)(O)Cn1c2ccc(F)cc2c2cc(F)ccc21` (centres unmarked) [Compound 33, 1-(3-(3,6-difluoro-9H-carbazol-9-yl)-2-hydroxy-2-methylpropyl)-5-ethylpyrrolidin-2-one] had an EC50 of 625 nM.

Compound `CC1CCN(CC(O)Cn2c3ccc(F)cc3c3cc(F)ccc32)C(=O)C1` (centres unmarked) [Compound 49, 1-(3-(3,6-difluoro-9H-carbazol-9-yl)-2-hydroxypropyl)-4-methylpiperidin-2-one] registered an EC50 of 137 nM. This EC50 is about 4.6-fold lower than that of the compound before.

With `C[C@H]1CCC(=O)N(C[C@@H](O)Cn2c3ccccc3c3ccccc32)C1` [Compound 132, (S)-1-((S)-3-(9H-carbazol-9-yl)-2-hydroxypropyl)-5-methylpiperidin-2-one], the EC50 turned out to be 1130 nM.

`O=C1C(C2CCCC2)CCCN1CC(O)Cn1c2ccc(F)cc2c2cc(F)ccc21` (centres unmarked) [Compound 23, 3-cyclopentyl-1-(3-(3,6-difluoro-9H-carbazol-9-yl)-2-hydroxypropyl)piperidin-2-one] returned a half-maximal effective concentration (EC50) of 399 nM.

As to `C[C@H]1CCC(=O)N(C[C@H](O)Cn2c3ccc(F)cc3c3cc(F)ccc32)C1` [Compound 130, (S)-1-((R)-3-(3,6-difluoro-9H-carbazol-9-yl)-2-hydroxypropyl)-5-methylpiperidin-2-one], the EC50 amounted to 895 nM.

Regarding `O=C1C(F)CCCN1CC(O)Cn1c2ccccc2c2ccccc21` (centres unmarked) [Compound 70, 1-(3-(9H-carbazol-9-yl)-2-hydroxypropyl)-3-fluoropiperidin-2-one], the EC50 was 61 nM. Compared with the last compound, the EC50 is about 15-fold lower.

Regarding `C[C@](O)(CN1CC[C@@H](F)C1=O)Cn1c2ccccc2c2ccccc21` [Compound 127, (R)-1-((R)-3-(9H-carbazol-9-yl)-2-hydroxy-2-methylpropyl)-3-fluoropyrrolidin-2-one], the EC50 turned out to be 535 nM.

Compound `O=C1CCCCN1CC(O)Cn1c2ccc(F)cc2c2cc(F)ccc21` (centres unmarked) [Compound 4, 1-(3-(3,6-difluoro-9H-carbazol-9-yl)-2-hydroxypropyl)piperidin-2-one] had an EC50 of 192 nM.

As to `O=C1[C@H]2CC[C@H](C2)N1C[C@H](O)Cn1c2ccccc2c2ccccc21` [Compound 107, (1R,4S)-2-((R)-3-(9H-carbazol-9-yl)-2-hydroxypropyl)-2-azabicyclo[2.2.1]heptan-3-one], a half-maximal effect (EC50) was put at 89 nM.

In turn, `O=C1CC(C2CC2)CN1CC(O)Cn1c2ccc(F)cc2c2cc(F)ccc21` (centres unmarked) [Compound 42, 4-cyclopropyl-1-(3-(3,6-difluoro-9H-carbazol-9-yl)-2-hydroxypropyl)pyrrolidin-2-one] came in with an EC50 of 420 nM.

`O=C1CCCCN1CC(O)Cn1c2ccccc2c2ccccc21` (centres unmarked) [Compound 1, 1-(3-(9H-carbazol-9-yl)-2-hydroxypropyl)piperidin-2-one] registered an EC50 of 171 nM.

`CC1CCN(CC(O)Cn2c3ccccc3c3ccccc32)C(=O)C1` (centres unmarked) [Compound 61, 2-(3-(9H-carbazol-9-yl)-2-hydroxypropyl)-4-methylpiperidin-2-one]: the concentration for a half-maximal effect (EC50) was determined as 710 nM.

Regarding `CC1CCCN(CC(C)(O)Cn2c3ccc(F)cc3c3cc(F)ccc32)C1=O` (centres unmarked) [Compound 28, 1-(3-(3,6-difluoro-9H-carbazol-9-yl)-2-hydroxy-2-methylpropyl)-3-methylpiperidin-2-one], the response was half-maximal at 824 nM (EC50).

Take `CC(C)N1CCCN(CC(O)Cn2c3ccc(F)cc3c3cc(F)ccc32)C1=O` (centres unmarked) [Compound 77, 1-(3-(3,6-difluoro-9H-carbazol-9-yl)-2-hydroxypropyl)-3-isopropyltetrahydropyrimidin-2(1H)-one]: the EC50 was found to be 620 nM.

Turning to `O=C1CCCN1CC(O)Cn1c2ccc(F)cc2c2cc(F)ccc21` (centres unmarked) [Compound 7, 1-(3-(3,6-difluoro-9H-carbazol-9-yl)-2-hydroxypropyl)pyrrolidin-2-one], the concentration for a half-maximal effect (EC50) amounted to 625 nM.

Take `C[C@@H]1CCC(=O)N1C[C@H](O)Cn1c2ccc(F)cc2c2cc(F)ccc21` [Compound 109, (R)-1-((R)-3-(3,6-difluoro-9H-carbazol-9-yl)-2-hydroxypropyl)-5-methylpyrrolidin-2-one]: the EC50 worked out at 226 nM.

In turn, `CC1(C)CC(=O)N(CC(O)Cn2c3ccc(F)cc3c3cc(F)ccc32)C1` (centres unmarked) [Compound 31, 1-(3-(3,6-difluoro-9H-carbazol-9-yl)-2-hydroxypropyl)-4,4-dimethylpyrrolidin-2-one] came in with an EC50 of 832 nM.

`C[C@H]1CCN(C[C@H](O)Cn2c3ccc(F)cc3c3cc(F)ccc32)C1=O` [Compound 115, (S)-1-((R)-3-(3,6-difluoro-9H-carbazol-9-yl)-2-hydroxypropyl)-3-methylpyrrolidin-2-one]: the response was half-maximal at 500 nM (EC50).

Compound `CC1(C)CCN(CC(O)Cn2c3ccc(F)cc3c3cc(F)ccc32)C1=O` (centres unmarked) [Compound 15, 1-(3-(3,6-difluoro-9H-carbazol-9-yl)-2-hydroxypropyl)-3,3-dimethylpyrrolidin-2-one] showed an EC50 of 164 nM.
